{"source": "patent EP0541617B1", "about": "“1,4-DISUBSTITUTED PIPERAZINES” (NOVO NORDISK A/S, priority 1990, dated 1992)", "key": {"Male NMRI mice": {"test_system": "Male NMRI mice", "experiment": "Test 2: increase of motility of mice after intravenous administration (photocell crossings)", "type": "in vivo", "conditions": "ED50, i.v., lowest ED50 value determined at a 20 min interval during the 360 min test period", "experimental": "The compounds were also tested for their ability to increase the motility of mice following intravenous administration using the method outlined below.\nMale NMRI mice are used (20 ± 2 g). The animals are housed 20-30 per cage under constant temperature (20 ± 1°C) and relative humidity (40-60%). The animals are brought into the experimental room in the afternoon, the day before they undergo testing.\nThe experimentally-naive, uninjected mice are acclimatized by being placed in a plexiglass box (WLH: 20 x 20 x 38 cm), four per box, for a 120 min period, and then injected with the test compound whereafter they are replaced in the plexiglass box.\nThe plexiglass box is equipped with a frame of photocells (spaced equidistantly) which are situated so as to detect locomotor behaviour of the animals (1 cm above the floor). The photocell chamber is housed in an sound-insulated, dimly-lit, ventilated chest. As a measure of exploratory behaviour, the number of photocell crossings in a 360 min period is detected using a minicomputer. Testing is made between 7:00 and 17.00 h.\nDrugs are injected i.v. simultaneously with start of testing; N = 4/dose; 4-5 doses of test drug is given in a volume of 10 ml/kg. […]"}, "DA-uptake complex": {"molecular_target": "T1, DA-uptake complex (Rattus norvegicus, UniProt P23977)", "T1 construct": "in a striatal membrane preparation; from tissue; host or cells: striatum (membrane preparation)", "T1 sequence (P23977 whole entry, one chain of several)": "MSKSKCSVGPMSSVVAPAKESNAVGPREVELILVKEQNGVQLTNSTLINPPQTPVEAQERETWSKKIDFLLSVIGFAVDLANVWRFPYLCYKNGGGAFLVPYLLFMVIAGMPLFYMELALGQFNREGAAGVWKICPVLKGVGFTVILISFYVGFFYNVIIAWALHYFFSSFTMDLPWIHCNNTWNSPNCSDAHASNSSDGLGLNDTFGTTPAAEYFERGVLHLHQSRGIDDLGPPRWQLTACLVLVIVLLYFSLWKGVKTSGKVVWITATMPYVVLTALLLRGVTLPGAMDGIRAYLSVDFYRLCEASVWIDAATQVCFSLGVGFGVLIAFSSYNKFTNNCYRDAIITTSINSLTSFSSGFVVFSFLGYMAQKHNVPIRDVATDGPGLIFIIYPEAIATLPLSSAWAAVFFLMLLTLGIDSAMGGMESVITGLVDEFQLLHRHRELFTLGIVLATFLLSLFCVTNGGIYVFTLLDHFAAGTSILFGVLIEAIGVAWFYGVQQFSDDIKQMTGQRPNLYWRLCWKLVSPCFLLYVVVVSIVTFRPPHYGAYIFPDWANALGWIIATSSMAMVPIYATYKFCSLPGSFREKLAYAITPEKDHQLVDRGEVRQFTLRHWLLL", "experiment": "Test 1: inhibition of 3H-GBR 12935 binding in a striatal membrane preparation"}}}
{"smiles": "Fc1ccc(C(OCCN2CCN(CCCc3ccccc3)CC2)c2ccc(F)cc2)cc1", "note": "[GBR 12909, 1-(2-(bis(4-fluorophenyl)-methoxy)-ethyl)-4-(3-phenyl-propyl) piperazine, reference compound]", "values": [{"measurement": "Test 2", "setting": "Male NMRI mice", "value": 2.3, "unit": "mg/kg"}]}
{"smiles": "N#CCCCCN1CCN(CCOC(c2ccc(F)cc2)c2ccc(F)cc2)CC1", "note": "[Example 4A, 1-[2-(bis-(4-fluorophenyl)-methoxy)-ethyl]-4-(4-cyanobutyl)-piperazine]", "values": [{"measurement": "Test 2", "setting": "Male NMRI mice", "value": 2.4, "unit": "mg/kg"}, {"measurement": "IC50", "setting": "DA-uptake complex", "value": 18, "unit": "nM"}]}
